Assay results from ChEMBL document CHEMBL3124876, “A perylene derivative regulates HIF-1α and Stat3 signaling pathways” (Bioorg Med Chem, 2014).
Active and inactive are the calls of the source. No cut-off for these calls is given here.

Experiments:
[1] = target: Signal transducer and activator of transcription 3 (Homo sapiens) (UniProt P40763); assay: Inhibition of Stat3 in human MDA-MB-231 cells assessed as inhibition of Stat3 phosphorylation at 10 uM after 18 hrs by Western blotting analysis; format: cell-based
[2] = tested on: MDA-MB-231; assay: Anticancer activity in human MDA-MB-231 cells assessed as reduction of total Stat3 level at 10 uM after 18 hrs by Western blotting analysis; format: functional, cell-based
[3] = target: Hypoxia-inducible factor 1-alpha (Homo sapiens) (UniProt Q16665); assay: Inhibition of HIF-1alpha in human MDA-MB-231 cells at 10 uM after 18 hrs by Western blotting analysis in hypoxia condition; format: cell-based
[4] = target: Signal transducer and activator of transcription 3 (Homo sapiens) (UniProt P40763); assay: Inhibition of Stat3 phosphorylation in human MDA-MB-231 cells assessed as inhibition of c-Myc expression at 1 to 20 uM by Western blotting analysis; format: cell-based
[5] = tested on: MCF7; assay: Induction of apoptosis in human MCF7 cells up to 20 uM by MTT assay; format: functional, cell-based
[6] = target: Hypoxia-inducible factor 1-alpha (Homo sapiens) (UniProt Q16665); assay: Inhibition of HIF-1 alpha in human MDA-MB-231 cells at 1 to 20 uM by Western blotting analysis; format: cell-based
[7] = species on record: Homo sapiens; assay: Inhibition of telomerase (unknown origin)
[8] = target: Signal transducer and activator of transcription 3 (Homo sapiens) (UniProt P40763); assay: Inhibition of Stat3 phosphorylation in human MDA-MB-231 cells at 1 to 20 uM by Western blotting analysis; format: cell-based
[9] = tested on: MDA-MB-231; assay: Antitumor activity against human MDA-MB-231 cells xenografted in Balb nu/nu mouse assessed as reduction in tumor growth at 10 mg/kg, ip administered every other day for 10 days; format: functional, organism-based; design: dose 10 mg/kg
[10] = target: Hypoxia-inducible factor 1-alpha (Homo sapiens) (UniProt Q16665); assay: Inhibition of HIF-1 alpha in human PANC1 cells after 3 hrs by Western blotting analysis in hypoxia condition; format: cell-based; details: PANC-1
[11] = target: Signal transducer and activator of transcription 3 (Homo sapiens) (UniProt P40763); assay: Inhibition of IL6-induced STAT3 phosphorylation in human PANC1 cells after 3 hrs by Western blotting analysis in hypoxia condition; format: cell-based; details: PANC-1

Signal transducer and activator of transcription 3 (Homo sapiens), sequence (P40763 whole entry): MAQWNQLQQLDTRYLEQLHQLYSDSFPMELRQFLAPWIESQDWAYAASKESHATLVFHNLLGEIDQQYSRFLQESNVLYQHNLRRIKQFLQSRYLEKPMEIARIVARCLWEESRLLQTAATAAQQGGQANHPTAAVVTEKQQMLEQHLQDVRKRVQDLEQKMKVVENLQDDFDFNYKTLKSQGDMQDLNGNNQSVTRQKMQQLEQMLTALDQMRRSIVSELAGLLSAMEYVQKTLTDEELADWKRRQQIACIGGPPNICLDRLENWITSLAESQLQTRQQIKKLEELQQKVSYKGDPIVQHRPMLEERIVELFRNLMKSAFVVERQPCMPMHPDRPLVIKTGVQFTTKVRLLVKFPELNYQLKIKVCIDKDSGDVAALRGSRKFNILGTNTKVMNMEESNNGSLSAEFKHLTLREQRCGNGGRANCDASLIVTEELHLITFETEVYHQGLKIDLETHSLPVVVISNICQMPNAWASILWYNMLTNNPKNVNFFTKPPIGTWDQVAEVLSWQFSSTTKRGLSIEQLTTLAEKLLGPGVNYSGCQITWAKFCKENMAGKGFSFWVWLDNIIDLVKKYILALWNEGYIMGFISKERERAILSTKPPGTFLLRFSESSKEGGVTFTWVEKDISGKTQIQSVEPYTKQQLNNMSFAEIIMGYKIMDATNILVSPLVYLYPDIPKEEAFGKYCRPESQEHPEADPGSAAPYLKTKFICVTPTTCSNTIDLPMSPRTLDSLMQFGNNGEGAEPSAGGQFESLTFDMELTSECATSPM
Hypoxia-inducible factor 1-alpha (Homo sapiens), sequence (Q16665 whole entry, looked up): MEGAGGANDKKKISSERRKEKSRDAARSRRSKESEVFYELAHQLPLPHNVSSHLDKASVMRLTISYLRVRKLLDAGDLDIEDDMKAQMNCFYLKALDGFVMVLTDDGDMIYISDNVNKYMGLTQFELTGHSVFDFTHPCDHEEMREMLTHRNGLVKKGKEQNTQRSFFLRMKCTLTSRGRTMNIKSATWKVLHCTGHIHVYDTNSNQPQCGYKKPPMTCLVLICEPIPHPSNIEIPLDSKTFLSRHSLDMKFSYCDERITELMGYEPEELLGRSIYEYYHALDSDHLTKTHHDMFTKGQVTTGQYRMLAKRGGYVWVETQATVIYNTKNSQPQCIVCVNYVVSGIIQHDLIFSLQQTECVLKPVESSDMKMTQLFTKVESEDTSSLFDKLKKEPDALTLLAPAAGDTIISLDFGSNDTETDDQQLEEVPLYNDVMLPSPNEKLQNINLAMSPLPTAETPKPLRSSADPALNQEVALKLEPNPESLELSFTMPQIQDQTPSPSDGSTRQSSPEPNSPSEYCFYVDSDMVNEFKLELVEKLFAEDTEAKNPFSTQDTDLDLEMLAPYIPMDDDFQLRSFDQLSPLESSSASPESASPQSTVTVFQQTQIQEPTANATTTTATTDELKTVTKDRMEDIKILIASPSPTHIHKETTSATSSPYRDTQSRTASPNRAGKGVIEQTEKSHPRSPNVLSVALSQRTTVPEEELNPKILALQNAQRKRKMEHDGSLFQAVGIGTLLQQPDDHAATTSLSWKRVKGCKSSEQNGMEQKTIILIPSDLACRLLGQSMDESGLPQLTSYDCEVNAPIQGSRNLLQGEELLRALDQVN

Row | SMILES | inhibition [1] | Activity [2] | inhibition [3] | inhibition [4] | Activity [5] | inhibition [6] | inhibition [7] | inhibition [8] | Activity [9] | inhibition [10] | inhibition [11]
1 | NCCN1C(=O)c2ccc3c4ccc5c6c(ccc(c7ccc(c2c37)C1=O)c64)C(=O)N(CCN)C5=O | inactive | inactive | inactive | inactive | inactive | inactive | Active | inactive |  |  | 
2 | NCCCN1C(=O)c2ccc3c4ccc5c6c(ccc(c7ccc(c2c37)C1=O)c64)C(=O)N(CCCN)C5=O | inactive | inactive | inactive |  |  |  |  |  |  |  | 
3 | CN(CCCN)CCCN1C(=O)c2ccc3c4ccc5c6c(ccc(c7ccc(c2c37)C1=O)c64)C(=O)N(CCCN(C)CCCCN)C5=O | inactive | inactive | inactive |  |  |  |  |  |  |  | 
4 | Nc1ccn([C@@H]2O[C@H](COP(=O)(O)O[C@H]3[C@@H](O)[C@H](n4cnc5c(=O)[nH]c(N)nc54)O[C@@H]3COP(=O)(O)O[C@H]3[C@@H](O)[C@H](n4cnc5c(=O)[nH]c(N)nc54)O[C@@H]3COP(=O)(O)O[C@H]3[C@@H](O)[C@H](n4cnc5c(=O)[nH]c(N)nc54)O[C@@H]3COP(=O)(O)O[C@H]3[C@@H](O)[C@H](n4ccc(N)nc4=O)O[C@@H]3COP(=O)(O)O[C@H]3[C@@H](O)[C@H](n4cnc5c(=O)[nH]c(N)nc54)O[C@@H]3COP(=O)(O)O[C@H]3[C@@H](O)[C@H](n4cnc5c(=O)[nH]c(N)nc54)O[C@@H]3COP(=O)(O)O[C@H]3[C@@H](O)[C@H](n4cnc5c(=O)[nH]c(N)nc54)O[C@@H]3COP(=O)(O)O[C@H]3[C@@H](O)[C@H](n4ccc(N)nc4=O)O[C@@H]3COP(=O)(O)O[C@H]3[C@@H](O)[C@H](n4cnc5c(=O)[nH]c(N)nc54)O[C@@H]3COP(=O)(O)O[C@H]3[C@@H](O)[C@H](n4cnc5c(=O)[nH]c(N)nc54)O[C@@H]3COP(=O)(O)O[C@H]3[C@@H](O)[C@H](n4cnc5c(=O)[nH]c(N)nc54)O[C@@H]3COP(=O)(O)O[C@H]3[C@@H](O)[C@H](n4ccc(N)nc4=O)O[C@@H]3COP(=O)(O)O[C@H]3[C@@H](O)[C@H](n4cnc5c(=O)[nH]c(N)nc54)O[C@@H]3COP(=O)(O)O[C@H]3[C@@H](O)[C@H](n4cnc5c(=O)[nH]c(N)nc54)O[C@@H]3COP(=O)(O)O[C@H]3[C@@H](O)[C@H](n4cnc5c(=O)[nH]c(N)nc54)O[C@@H]3COP(=O)(O)O)[C@@H](O)[C@H]2O)c(=O)n1 |  |  |  |  |  |  |  |  | Active | inactive | Active
